Key:
Assay in all cases: relative viability (nuclei count vs DMSO), 5 days (fraction); higher = more cells survive
NCI-H522 = system: NCI-H522
Summary of the method: (§1)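 One day after seeding in 1536-well plates, lung cancer cell lines were dosed by pin tool. Dosing was either single-drug or a fixed anchor-drug dose plus five library-drug doses (not always all listed) in √10 steps. After 5 days, nuclei were stained in one fix-and-stain step and counted on 4× images, and relative viability is the nuclei count of treated wells over that of vehicle wells, given as the median of duplicate plates.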

NCI-H2405 = system: NCI-H2405
Summary of the method: as §1

NCI-H1792 = system: NCI-H1792
Summary of the method: as §1

EKVX = system: EKVX
Summary of the method: as §1

HCC-827 = system: HCC-827
Summary of the method: as §1

LOU-NH91 = system: LOU-NH91
Summary of the method: as §1

SK-LU-1 = system: SK-LU-1
Summary of the method: as §1

HARA = system: HARA
Summary of the method: as §1

NCI-H2009 = system: NCI-H2009
Summary of the method: as §1

NCI-H2087 = system: NCI-H2087
Summary of the method: as §1

NCI-H647 = system: NCI-H647
Summary of the method: as §1

O=c1cc(N2CCOCC2)oc2c(-c3cccc4c3sc3ccccc34)cccc12 + Nc1nc2[nH]cc(CCc3ccc(C(=O)N[C@@H](CCC(=O)O)C(=O)O)cc3)c2c(=O)[nH]1 [Pemetrexed] (partner 0.2 µM)
relative viability (NCI-H522; first compound 0.01 µM): 1.11 | relative viability (NCI-H522; first compound 0.03162 µM): 1.02 | relative viability (NCI-H522; first compound 0.1 µM): 1.08 | relative viability (NCI-H522; first compound 0.3162 µM): 1.13 | relative viability (NCI-H522; first compound 1 µM): 0.831 | relative viability (NCI-H2405; first compound 0.01 µM): 1.02 | relative viability (NCI-H2405; first compound 0.03162 µM): 1.18 | relative viability (NCI-H2405; first compound 0.1 µM): 0.943 | relative viability (NCI-H2405; first compound 0.3162 µM): 1.11 | relative viability (NCI-H2405; first compound 1 µM): 1.09 | relative viability (NCI-H1792; first compound 0.01 µM): 0.835 | relative viability (NCI-H1792; first compound 0.03162 µM): 0.901 | relative viability (NCI-H1792; first compound 0.3162 µM): 0.836 | relative viability (NCI-H1792; first compound 1 µM): 0.759 | relative viability (EKVX; first compound 0.01 µM): 0.41 | relative viability (EKVX; first compound 0.03162 µM): 0.384 | relative viability (EKVX; first compound 0.1 µM): 0.419 | relative viability (EKVX; first compound 0.3162 µM): 0.365 | relative viability (EKVX; first compound 1 µM): 0.362 | relative viability (HCC-827; first compound 0.01 µM): 0.264 | relative viability (HCC-827; first compound 0.03162 µM): 0.254 | relative viability (HCC-827; first compound 0.1 µM): 0.295 | relative viability (HCC-827; first compound 0.3162 µM): 0.271 | relative viability (HCC-827; first compound 1 µM): 0.3 | relative viability (LOU-NH91; first compound 0.01 µM): 0.39 | relative viability (LOU-NH91; first compound 0.03162 µM): 0.384 | relative viability (LOU-NH91; first compound 0.1 µM): 0.377 | relative viability (LOU-NH91; first compound 0.3162 µM): 0.386 | relative viability (LOU-NH91; first compound 1 µM): 0.425 | relative viability (SK-LU-1; first compound 0.01 µM): 0.963 | relative viability (SK-LU-1; first compound 0.03162 µM): 0.975 | relative viability (SK-LU-1; first compound 0.1 µM): 1.02 | relative viability (SK-LU-1; first compound 0.3162 µM): 1 | relative viability (SK-LU-1; first compound 1 µM): 0.953 | relative viability (HARA; first compound 0.01 µM): 0.217 | relative viability (HARA; first compound 0.03162 µM): 0.271 | relative viability (HARA; first compound 0.1 µM): 0.225 | relative viability (HARA; first compound 0.3162 µM): 0.238 | relative viability (HARA; first compound 1 µM): 0.262 | relative viability (NCI-H2009; first compound 0.01 µM): 0.929 | relative viability (NCI-H2009; first compound 0.03162 µM): 1.04 | relative viability (NCI-H2009; first compound 0.1 µM): 1.01 | relative viability (NCI-H2009; first compound 0.3162 µM): 1.01 | relative viability (NCI-H2009; first compound 1 µM): 0.998 | relative viability (NCI-H2087; first compound 0.01 µM): 0.665 | relative viability (NCI-H2087; first compound 0.03162 µM): 0.633 | relative viability (NCI-H2087; first compound 0.1 µM): 0.693 | relative viability (NCI-H2087; first compound 0.3162 µM): 0.662 | relative viability (NCI-H2087; first compound 1 µM): 0.651 | relative viability (NCI-H647; first compound 0.01 µM): 0.187 | relative viability (NCI-H647; first compound 0.03162 µM): 0.183 | relative viability (NCI-H647; first compound 0.1 µM): 0.184 | relative viability (NCI-H647; first compound 0.3162 µM): 0.209 | relative viability (NCI-H647; first compound 1 µM): 0.178

— the supplement of paper PMC10307832
